Earlier results in PMC8961646, “Fibroblast Activation Protein Specific Optical Imaging in Non-Small Cell Lung Cancer” (Frontiers in Oncology, 2022).

Tested on: FAP expressing tumours
Conditions: murine tumour models, NIR fluorescence; cited from earlier work
Description: Prior studies investigating FAP as an optical probe target focussed on near infrared (NIR) fluorophores where signal can be detected with minimal intrinsic tissue autofluorescence. Li et al. designed an activatable NIR fluorescent probe (ANPFAP) for FAP which was composed of the NIR dye Cy5.5 and the quencher dye QSY21 which were linked by a peptide sequence which is cleaved specifically by FAP (KGPGPNQC) ([24]). […] Although not developed as an imaging optical ...

KGPGPNQC [ANPFAP]
Signal in FAP expressing tumours: higher signal
